# US11827616B2, “Heterocyclic compounds as pesticides” (Discovery Purchaser Corporation, priority 2018, dated 2023)
# Key:
# Assay type in all cases: in vivo
# Meloidogyne incognita = Meloidogyne incognita test; details: application rate 20 ppm; after 14 days
# Procedure: Meloidogyne incognita Test
# Solvent: 125.0 parts by weight of acetone
# To produce a suitable active compound formulation, 1 part by weight of active compound is mixed with the stated amount of solvent and the concentrate is diluted to the desired concentration with water.
# Vessels are filled with sand, active compound solution, an egg/larvae suspension of the southern root-knot nematode (Meloidogyne incognita) and lettuce seeds. The lettuce seeds germinate and the plants develop. The galls develop on the roots.
# After 14 days, the nematicidal efficacy in % is determined by the formation of galls. 100% means that no galls were found; 0% means that the number of galls on the treated plants corresponds to the untreated control.
# Spodoptera frugiperda = Spodoptera frugiperda spray test; details: application rate 500 g/ha; after 7 days
# In short: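 Maize leaf discs sprayed with compound formulated in acetone/dimethylformamide and diluted in water with 1000 ppm alkylaryl polyglycol ether emulsifier. Once dry, discs are infested with fall armyworm caterpillars. Efficacy in % read after 7 days: 100% all caterpillars killed, 0% none killed.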
# Ctenocephalides felis = Ctenocephalides felis oral test; details: application rate 100 ppm in citrated cattle blood; after 2 days
# In short: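 About 20 unfed adult cat fleas fed via parafilm membrane on citrated cattle blood containing compound (DMSO formulation). Kill % scored after 2 days, 100% meaning all fleas dead.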
# Musca domestica = Musca domestica test; details: application rate 100 ppm; adult houseflies; after 2 days
# Procedure: Solvent: dimethyl sulfoxide
# To produce a suitable active compound formulation, 10 mg of active compound are mixed with 0.5 ml of dimethyl sulfoxide, and the concentrate is diluted with water to the desired concentration.
# Vessels containing a sponge treated with sugar solution and the desired concentration of active compound formulation are populated with 10 adult houseflies (Musca domestica).
# After 2 days, the kill in % is determined. 100% means that all of the flies have been killed; 0% means that none of the flies have been killed.
# Lucilia cuprina = Lucilia cuprina test; details: application rate 100 ppm; L1 larvae; after 2 days
# In short: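 About 20 first-instar larvae were placed in vessels of minced horsemeat with compound at the desired concentration. Compound was dissolved in DMSO and diluted in water. Percent kill scored after 2 days.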
# Boophilus microplus = Boophilus microplus injection test; details: application rate 20 μg/animal, after 7 days
# In short: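 Compound dissolved in DMSO; 1 μl injected into the abdomen of engorged adult female ticks, five per group, kept in climate-controlled room. Efficacy scored after 7 days from fertile egg laying (100% = no fertile eggs; 0% = all fertile), with unclear eggs held ~42 days until hatching.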
# Phaedon cochleariae = Phaedon cochleariae spray test; details: application rate 500 g/ha; after 7 days
# In short: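 Chinese cabbage leaf discs sprayed with compound formulated in acetone/DMF and water with 1000 ppm emulsifier, then infested with mustard beetle larvae once dry. Percent larval kill scored after 7 days (100% = all dead, 0% = none).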
# Nezara viridula = Nezara viridula spray test; details: application rate 500 g/ha; after 4 days
# Procedure: Nezara viridula—Spray Test
# (§1) Solvent: 78.0 parts by weight of acetone • • 1.5 parts by weight of dimethylformamide
# (§2) Emulsifier: alkylaryl polyglycol ether
# (§3) To produce a suitable active compound formulation, 1 part by weight of active compound is dissolved with the specified parts by weight of solvent and made up to the desired concentration with water containing an emulsifier concentration of 1000 ppm. To produce further test concentrations, the formulation is diluted with emulsifier-containing water.
# Barley plants (Hordeum vulgare) infected with larvae of the Southern green shield bug (Nezara viridula) are srayed with an active compound formulation of the desired concentration.
# After 4 days, the efficacy in % is determined. 100% means that all of the shield bugs have been killed; 0% means that none of the shield bugs have been killed.
# Nilaparvata lugens = Nilaparvata lugens test; details: application rate 500 g/ha; after 4 days
# Procedure: as §1, §2, §3
# Rice plants (Oryza sativa) are sprayed with the active compound formulation of the desired concentration and then infected with the brown planthopper (Nilaparvata lugens).
# After 4 days, the efficacy in % is determined. 100% means that all of the planthoppers have been killed; 0% means that none of the planthoppers have been killed.
# Tetranychus urticae = Tetranychus urticae spray test, OP-resistant; details: application rate 500 g/ha; after 6 days
# In short: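 Bean leaf discs carrying all stages of OP-resistant Tetranychus urticae were sprayed with compound in acetone/dimethylformamide diluted in water containing alkylaryl polyglycol ether emulsifier (1000 ppm). Mortality scored after 6 days as % efficacy (100% = all mites killed).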
# Myzus persicae = Myzus persicae spray test; details: application rate 500 g/ha; after 5 days
# Procedure: Myzus persicae—Spray Test
# Solvent: 78 parts by weight of acetone • • 1.5 parts by weight of dimethylformamide
# as §2, §3
# Discs of Chinese cabbage leaves (Brassica pekinensis) infested by all stages of the green peach aphid (Myzus persicae) are sprayed with an active compound formulation of the desired concentration.
# After 5 days, the efficacy in % is determined. 100% means that all the aphids have been killed; 0% means that no aphids have been killed.
Structure (SMILES),nematicidal efficacy (formation of galls) (Meloidogyne incognita) [%],efficacy (Spodoptera frugiperda) [%],efficacy (kill in %) (Ctenocephalides felis) [%],efficacy (kill in %) (Musca domestica) [%],efficacy (kill in %) (Lucilia cuprina) [%],efficacy (laying of fertile eggs) (Boophilus microplus) [%],efficacy (Phaedon cochleariae) [%],efficacy (Nezara viridula) [%],efficacy (Nilaparvata lugens) [%],efficacy (Tetranychus urticae) [%],efficacy (Myzus persicae) [%]
CC(=O)N1CCC(Oc2ccc(COc3ccc(Cl)c4ccccc34)cn2)C1 (stereo not shown) [Example 4],90,100,100,80,100,100,100,,,,
CON(C)CCOc1cnc(COc2ccc(F)c(-c3cccc(OC(F)(F)F)c3)c2)c(F)c1 [Example 50],,100,,,,,100,100,100,100,90
